One test deals with T1, SFRP-1 (Homo sapiens, UniProt Q8N474).
T1 sequence (Q8N474 32-314): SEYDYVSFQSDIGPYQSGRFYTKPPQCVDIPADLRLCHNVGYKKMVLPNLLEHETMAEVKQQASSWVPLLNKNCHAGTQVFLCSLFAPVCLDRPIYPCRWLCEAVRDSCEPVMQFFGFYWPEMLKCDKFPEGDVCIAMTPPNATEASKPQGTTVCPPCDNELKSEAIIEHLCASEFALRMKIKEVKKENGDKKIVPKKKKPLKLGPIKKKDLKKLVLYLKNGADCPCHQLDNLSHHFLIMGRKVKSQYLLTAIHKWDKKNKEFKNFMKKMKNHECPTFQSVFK
Nature of the test: Cell-based assay for in vitro measurement of SFRP-1/SARP2 antagonist activity (U2OS cells co-transfected with 16x TCF-tk-Luciferase reporter, Wnt and hSFRP-1).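 Further: U2OS cells co-transfected with a TCF-tk luciferase reporter, a Wnt vector, hSFRP-1 or empty vector and CMV-βgal, luciferase luminescence read in cell lysates alongside βgal activity.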
Settings: not given
(In general: A reporter such as luciferase makes a cellular process visible.)
In the case of `Cc1ccc(S(=O)(=O)c2ccccc2)cc1S(=O)(=O)NCCC(=O)NC(C)(C)C` [Example 666, N-(tert-butyl)-N^3-{[2-methyl-5-(phenylsulfonyl)phenyl]sulfonyl}-β-alaninamide], the EC50 (commonly the concentration needed to bring the measured effect to its halfway point) was 27.2 µM.

`O=S(=O)(NCCO)c1cc(S(=O)(=O)c2ccccc2)ccc1Cl` [Example 673, 2-chloro-N-(2-hydroxyethyl)-5-(phenylsulfonyl)benzenesulfonamide] displayed a half-maximal effective concentration (EC50) of 15.9 µM. This EC50 is about 1.7-fold lower than that of the molecule before.

`CC(CO)NS(=O)(=O)c1cc(S(=O)(=O)c2ccccc2)ccc1Cl` (centres unmarked) [Example 674, 2-chloro-N-(2-hydroxy-1-methylethyl)-5-(phenylsulfonyl)benzenesulfonamide] yielded a 50% effective concentration (EC50) of 24.1 µM.

Consider `O=S(=O)(NC(CO)CO)c1cc(S(=O)(=O)c2ccccc2)ccc1Cl` [Example 675, 2-chloro-N-[2-hydroxy-1-(hydroxymethyl)ethyl]-5-(phenylsulfonyl)benzenesulfonamide], for which the EC50 stood at 41.5 µM.

The test is the same for the next values; noted with them: U2OS, read-out: Fold Induction with SFRP-1, U2OS cells, single dose 10 μM, luciferase reporter, fold induction over SFRP-1 control.
Consider `N#CCNS(=O)(=O)c1cc(S(=O)(=O)c2ccccc2)ccc1Cl` [Example 663, 2-chloro-N-(cyanomethyl)-5-(phenylsulfonyl)benzenesulfonamide], for which the fold induction at 10 µM was determined as 1.

Turning to `Cc1ccc(S(=O)(=O)c2ccccc2)cc1S(=O)(=O)NCCC(=O)N1CCCC1` [Example 665, 2-methyl-N-(3-oxo-3-pyrrolidin-1-ylpropyl)-5-(phenylsulfonyl)benzenesulfonamide], the fold induction at 10 µM worked out at 1.3.

Take `Cc1ccc(S(=O)(=O)c2ccccc2)cc1S(=O)(=O)NCCC(=O)NC(C)(C)C` [Example 666, N-(tert-butyl)-N^3-{[2-methyl-5-(phenylsulfonyl)phenyl]sulfonyl}-β-alaninamide]: the fold induction at 10 µM came to 1.5.

On to `Cc1ccc(S(=O)(=O)c2ccccc2)cc1S(=O)(=O)NCCC(=O)NC1CCCc2ccccc21` (stereo not drawn) [Example 667, N^3-{[2-methyl-5-(phenylsulfonyl)phenyl]sulfonyl}-N-(1,2,3,4-tetrahydronaphthalen-1-yl)-β-alaninamide], for which the fold induction at 10 µM came to 0.9.

Regarding `Cc1ccc(S(=O)(=O)c2ccccc2)cc1S(=O)(=O)NCCC(=O)N(C)c1ccccc1` [Example 668, N-methyl-N^3-{[2-methyl-5-(phenylsulfonyl)phenyl]sulfonyl}-N-phenyl-β-alaninamide], the fold induction at 10 µM amounted to 1.4.

For the molecule `Cc1ccc2c(c1)CCCN2C(=O)CCNS(=O)(=O)c1cc(S(=O)(=O)c2ccccc2)ccc1C` [Example 669, 2-methyl-N-[3-(6-methyl-3,4-dihydroquinolin-1(2H)-yl)-3-oxopropyl]-5-(phenylsulfonyl)benzenesulfonamide], the fold induction at 10 µM came out at 0.9.

Consider `O=S(=O)(NCCO)c1cc(S(=O)(=O)c2ccccc2)ccc1Cl` [Example 673, 2-chloro-N-(2-hydroxyethyl)-5-(phenylsulfonyl)benzenesulfonamide], for which the fold induction at 10 µM stood at 2.

For the molecule `CC(CO)NS(=O)(=O)c1cc(S(=O)(=O)c2ccccc2)ccc1Cl` (centres unmarked) [Example 674, 2-chloro-N-(2-hydroxy-1-methylethyl)-5-(phenylsulfonyl)benzenesulfonamide], the fold induction at 10 µM worked out at 2.

Take `O=S(=O)(NC(CO)CO)c1cc(S(=O)(=O)c2ccccc2)ccc1Cl` [Example 675, 2-chloro-N-[2-hydroxy-1-(hydroxymethyl)ethyl]-5-(phenylsulfonyl)benzenesulfonamide]: the fold induction at 10 µM came to 1.7.

For the molecule `C[C@H](NS(=O)(=O)c1cc(S(=O)(=O)c2ccccc2)ccc1C(F)(F)F)[C@H](O)c1ccccc1` [Example 685, N-[(1S,2R)-2-hydroxy-1-methyl-2-phenylethyl]-5-(phenylsulfonyl)-2-(trifluoromethyl)benzenesulfonamide], the fold induction at 10 µM was 1.5.

On to `O=S(=O)(NC1CCN(C(=S)c2ccc(C(F)(F)F)cc2)CC1)c1cc(S(=O)(=O)c2ccccc2)ccc1C(F)(F)F` [Example 724, 5-(phenylsulfonyl)-2-(trifluoromethyl)-N-(1-{[4-(trifluoromethyl)phenyl]carbonothioyl}piperidin-4-yl)benzenesulfonamide], for which the fold induction at 10 µM was 1.7.

Take `CC(C)c1ccc(S(=O)(=O)c2ccc(F)cc2)cc1S(=O)(=O)NC1CCN(C(=S)Nc2ccc(C(F)(F)F)cc2)CC1` [Example 730, 4-[({5-[(4-fluorophenyl)sulfonyl]-2-isopropylphenyl}sulfonyl)amino]-N-[4-(trifluoromethyl)phenyl]piperidine-1-carbothioamide]: the fold induction at 10 µM is 2.2.

For `CC(C)c1ccc(S(=O)(=O)c2ccc(F)cc2)cc1S(=O)(=O)NC(CO)C(C)C` (centres unmarked) [Example 734, 5-[(4-fluorophenyl)sulfonyl]-N-[1-(hydroxymethyl)-2-methylpropyl]-2-isopropylbenzenesulfonamide], the fold induction at 10 µM worked out at 1.6.

Consider `Cc1cc(C)c(S(=O)(=O)c2ccccc2)cc1S(=O)(=O)NCC(O)c1cccnc1` (centres unmarked) [Example 737, N-(2-hydroxy-2-pyridin-3-ylethyl)-2,4-dimethyl-5-(phenylsulfonyl)benzenesulfonamide], for which the fold induction at 10 µM is 2.4.

For `CC(C)(C)c1ccc(S(=O)(=O)N2CCC(NS(=O)(=O)c3cc(S(=O)(=O)c4ccccc4)ccc3C(F)(F)F)CC2)cc1` [Example 748, N-{1-[(4-tert-butylphenyl)sulfonyl]piperidin-4-yl}-5-(phenylsulfonyl)-2-(trifluoromethyl)benzenesulfonamide], the fold induction at 10 µM is 2.8.

Turning to `Cc1ccc(S(=O)(=O)c2ccc(F)cc2)cc1S(=O)(=O)NCC(O)c1ccccn1` (centres unmarked) [Example 756, 5-[(4-fluorophenyl)sulfonyl]-N-(2-hydroxy-2-pyridin-2-ylethyl)-2-methylbenzenesulfonamide], the fold induction at 10 µM is 1.3.

`Cc1ccc(C(=O)NCCNS(=O)(=O)c2cc(S(=O)(=O)c3ccccc3)ccc2C(F)(F)F)cc1` [Example 775, 4-Methyl-N-[2-({[5-(phenylsulfonyl)-2-(trifluoromethyl)phenyl]sulfonyl}amino)ethyl]benzamide]: the fold induction at 10 µM was determined as 1.3.

As to `CC(C)(C)c1ccc(C(=O)NCCNS(=O)(=O)c2cc(S(=O)(=O)c3ccccc3)ccc2C(F)(F)F)cc1` [Example 776, 4-tert-Butyl-N-[2-({[5-(phenylsulfonyl)-2-(trifluoromethyl)phenyl]sulfonyl}amino)ethyl]benzamide], the fold induction at 10 µM turned out to be 0.9.

Take `O=C(NCCNS(=O)(=O)c1cc(S(=O)(=O)c2ccccc2)ccc1C(F)(F)F)c1ccc(F)cc1` [Example 777, 4-Fluoro-N-[2-({[5-(phenylsulfonyl)-2-(trifluoromethyl)phenyl]sulfonyl}amino)ethyl]benzamide]: the fold induction at 10 µM turned out to be 1.1.

Take `O=C(NCCNS(=O)(=O)c1cc(S(=O)(=O)c2ccccc2)ccc1C(F)(F)F)c1ccc(Cl)cc1` [Example 778, 4-Chloro-N-[2-({[5-(phenylsulfonyl)-2-(trifluoromethyl)phenyl]sulfonyl}amino)ethyl]benzamide]: the fold induction at 10 µM came out at 1.2.

With `O=C(NCCNS(=O)(=O)c1cc(S(=O)(=O)c2ccccc2)ccc1C(F)(F)F)c1ccc(Br)cc1` [Example 779, 4-Bromo-N-[2-({[5-(phenylsulfonyl)-2-(trifluoromethyl)phenyl]sulfonyl}amino)ethyl]benzamide], the fold induction at 10 µM worked out at 1.

For `COc1ccc(C(=O)NCCNS(=O)(=O)c2cc(S(=O)(=O)c3ccccc3)ccc2C(F)(F)F)cc1` [Example 780, 4-Methoxy-N-[2-({[5-(phenylsulfonyl)-2-(trifluoromethyl)phenyl]sulfonyl}amino)ethyl]benzamide], the fold induction at 10 µM amounted to 1.7.

As for `O=C(NCCNS(=O)(=O)c1cc(S(=O)(=O)c2ccccc2)ccc1C(F)(F)F)c1ccc(C(F)(F)F)cc1` [Example 781, N-[2-({[5-(Phenylsulfonyl)-2-(trifluoromethyl)phenyl]sulfonyl}amino)ethyl]-4-(trifluoromethyl)benzamide], the fold induction at 10 µM was determined as 1.2.

In the case of `O=C(NCCNS(=O)(=O)c1cc(S(=O)(=O)c2ccccc2)ccc1C(F)(F)F)c1ccc(OC(F)(F)F)cc1` [Example 782, N-[2-({[5-(Phenylsulfonyl)-2-(trifluoromethyl)phenyl]sulfonyl}amino)ethyl]-4-(trifluoromethoxy)benzamide], the fold induction at 10 µM turned out to be 1.2.

Take `Cc1ccc(S(=O)(=O)c2ccc(F)cc2)cc1S(=O)(=O)NC1CCN(C(=O)OC(C)(C)C)CC1` [Example 789, tert-butyl 4-[({5-[(4-fluorophenyl)sulfonyl]-2-methylphenyl}sulfonyl)amino]piperidine-1-carboxylate]: the fold induction at 10 µM worked out at 1.5.

Take `CC(C)(C)OC(=O)N1CCCC1CCNS(=O)(=O)c1cc(S(=O)(=O)c2ccccc2)ccc1C(F)(F)F` (centres unmarked) [Example 908, tert-butyl 2-[2-({[5-(phenylsulfonyl)-2-(trifluoromethyl)phenyl]sulfonyl}amino)ethyl]pyrrolidine-1-carboxylate]: the fold induction at 10 µM came to 1.1.

`Cc1cc(S(=O)(=O)c2ccccc2)cc(S(=O)(=O)NC2CCN(C(=O)OC(C)(C)C)CC2)c1C` [Example 910, tert-butyl 4-({[2,3-dimethyl-5-(phenylsulfonyl)phenyl]sulfonyl}amino)piperidine-1-carboxylate]: the fold induction at 10 µM was 1.2.

On to `Cc1cc(S(=O)(=O)c2ccccc2)cc(S(=O)(=O)NC2CCNCC2)c1C` [Example 922, 2,3-dimethyl-5-(phenylsulfonyl)-N-piperidin-4-ylbenzenesulfonamide], for which the fold induction at 10 µM amounted to 1.1.

With `COC(=O)c1ccc(CNS(=O)(=O)c2cc(S(=O)(=O)c3ccccc3)ccc2C(C)C)cc1` [Example 951, methyl 4-[({[2-isopropyl-5-(phenylsulfonyl)phenyl]sulfonyl}amino)methyl]benzoate], the fold induction at 10 µM came out at 1.8.

For the molecule `O=S(=O)(NCCc1ccc(Br)cc1)c1cc(S(=O)(=O)c2ccccc2)ccc1C(F)(F)F` [Example 960, N-[2-(4-bromophenyl)ethyl]-5-(phenylsulfonyl)-2-(trifluoromethyl)benzenesulfonamide], the fold induction at 10 µM was 1.4.

For `O=S(=O)(NCc1ccc(Br)cc1)c1cc(S(=O)(=O)c2ccccc2)ccc1C(F)(F)F` [Example 964, N-(4-bromobenzyl)-5-(phenylsulfonyl)-2-(trifluoromethyl)benzenesulfonamide], the fold induction at 10 µM came to 1.2.

(Values after patent US20060276464A1, “Diarylsulfone sulfonamides and use thereof” (Wyeth, priority 2005, published 2006).)
